Values after ≈ are worked out from the molar mass of the structure shown.
Legend:
physchem [1] = settings: buffer, pH 6.5
[2] = molecular target: BDNF/NT-3 growth factors receptor (Homo sapiens, UniProt Q16620)
in vitro = settings: human, liver microsomes
physchem [3] = settings: octanol/water, pH 7.4
human BCRP [4] = assay: in vitro; settings: dog
[5] = human, hepatocytes, 4 h, 1 µM
[6] = molecular target: T1, Voltage-gated inwardly rectifying potassium channel KCNH2 (Homo sapiens, UniProt Q12809)
Aldehyde oxidase [7] = molecular target: T2, Aldehyde oxidase (Homo sapiens, UniProt Q06278); assay: Drug metabolism in human liver S9 fractions assessed as AO-mediated oxidation at 2-aminopyrimidyl ring at 10 uM incubated for 60 mins in absence of CYP cofactor NADP by HPLC-UV chromatography; assay type: ADME, subcellular; settings: s9, 1 h
T2 sequence (Q06278 whole entry): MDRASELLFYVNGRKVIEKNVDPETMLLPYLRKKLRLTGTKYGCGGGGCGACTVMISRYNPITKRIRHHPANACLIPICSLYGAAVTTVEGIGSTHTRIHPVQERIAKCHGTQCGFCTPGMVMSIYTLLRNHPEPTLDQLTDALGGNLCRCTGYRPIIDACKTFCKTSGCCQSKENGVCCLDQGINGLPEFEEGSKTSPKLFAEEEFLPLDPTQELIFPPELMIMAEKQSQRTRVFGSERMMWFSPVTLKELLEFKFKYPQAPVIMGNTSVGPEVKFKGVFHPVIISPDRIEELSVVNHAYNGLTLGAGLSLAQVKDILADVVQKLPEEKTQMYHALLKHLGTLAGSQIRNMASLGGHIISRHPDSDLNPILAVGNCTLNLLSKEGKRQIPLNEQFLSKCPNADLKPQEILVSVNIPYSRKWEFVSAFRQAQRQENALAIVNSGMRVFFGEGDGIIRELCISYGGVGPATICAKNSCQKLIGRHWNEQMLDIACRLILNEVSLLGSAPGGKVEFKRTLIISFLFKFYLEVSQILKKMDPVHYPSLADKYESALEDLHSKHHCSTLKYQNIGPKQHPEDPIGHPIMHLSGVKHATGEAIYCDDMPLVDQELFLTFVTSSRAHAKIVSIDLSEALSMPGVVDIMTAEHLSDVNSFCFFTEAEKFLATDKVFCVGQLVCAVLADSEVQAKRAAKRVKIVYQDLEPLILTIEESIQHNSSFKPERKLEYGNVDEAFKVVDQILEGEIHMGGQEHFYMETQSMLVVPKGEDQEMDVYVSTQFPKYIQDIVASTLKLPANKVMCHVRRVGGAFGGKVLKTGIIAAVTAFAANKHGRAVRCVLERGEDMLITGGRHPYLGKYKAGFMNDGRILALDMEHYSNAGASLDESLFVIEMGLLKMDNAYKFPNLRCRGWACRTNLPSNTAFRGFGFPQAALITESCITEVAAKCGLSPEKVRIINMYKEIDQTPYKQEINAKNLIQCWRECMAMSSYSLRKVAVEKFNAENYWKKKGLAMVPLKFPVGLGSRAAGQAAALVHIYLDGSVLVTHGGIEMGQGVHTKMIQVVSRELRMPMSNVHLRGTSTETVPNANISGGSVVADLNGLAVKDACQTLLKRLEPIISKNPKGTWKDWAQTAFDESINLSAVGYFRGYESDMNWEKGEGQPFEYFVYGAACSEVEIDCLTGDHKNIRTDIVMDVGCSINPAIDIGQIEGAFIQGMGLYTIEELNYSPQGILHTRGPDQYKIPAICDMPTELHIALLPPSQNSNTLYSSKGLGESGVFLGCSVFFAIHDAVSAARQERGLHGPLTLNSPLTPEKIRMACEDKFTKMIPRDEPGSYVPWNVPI

[8] = molecular target: High affinity nerve growth factor receptor (Homo sapiens, UniProt P04629)
in vivo = settings: rat, brain and plasma, po, 100 mg/kg
Aldehyde oxidase [9] = molecular target: T2, Aldehyde oxidase; assay: Drug metabolism in human liver S9 fractions assessed as AO-mediated oxidation on central pyridine substituent at 10 uM incubated for 60 mins in absence of CYP cofactor NADP by HPLC-UV chromatography; assay type: ADME, subcellular; settings: s9, 1 h
[10] = Clearance in rat at 1 mg/kg, iv; assay type: ADME, organism-based; settings: in vivo
[11] = Half life in rat at 1 mg/kg, iv; assay type: ADME, organism-based; settings: in vivo
[12] = Volume of distribution in rat at 1 mg/kg, iv; assay type: ADME, organism-based; settings: in vivo, read-out: Vdss
[13] = Toxicity in rat assessed as drug tolerability at 400 mg/kg/day during 7 day toxicological study; assay type: organism-based; settings: in vivo, 168 h
[14] = Oral bioavailability in rat at 3 mg/kg; assay type: ADME, organism-based; settings: in vivo
[15] = Clearance in rat at 1 mg/kg, iv relative to hepatic blood flow; assay type: ADME, organism-based; settings: in vivo
Aldehyde oxidase [16] = molecular target: T2, Aldehyde oxidase; assay: Drug metabolism in human liver S9 fractions assessed as AO-mediated oxidation on pyrrolopyrimidine-hinge binding group at 10 uM incubated for 60 mins in absence of CYP cofactor NADP by HPLC-UV chromatography; assay type: ADME, subcellular; settings: s9, 1 h
[17] = molecular target: T1, Voltage-gated inwardly rectifying potassium channel KCNH2; remark: listed apart in the source
Aldehyde oxidase [18] = molecular target: T2, Aldehyde oxidase; assay: Drug metabolism in human liver S9 fractions assessed as AO-mediated oxidation at fluoro-pyrrolopyridine motif at 10 uM incubated for 60 mins in absence of CYP cofactor NADP by HPLC-UV chromatography; assay type: ADME, subcellular; settings: s9, 1 h
MDR1 (P-gp) = assay: in vitro; settings: dog, MDCK-MDR1
human BCRP [19] = assay: in vitro; settings: dog; remark: listed apart in the source
Aldehyde oxidase [20] = molecular target: T2, Aldehyde oxidase; assay: Drug metabolism in human liver S9 fractions assessed as AO-mediated mono-oxidised metabolite formation at 10 uM incubated for 60 mins in absence of CYP cofactor NADP and in presence of 50 uM XO inhibitor allopurinol by HPLC-UV chromatography; assay type: ADME, subcellular; settings: s9, 1 h
Aldehyde oxidase [21] = molecular target: T2, Aldehyde oxidase; assay: Drug metabolism in human liver S9 fractions assessed as AO-mediated mono-oxidised metabolite formation at 10 uM incubated for 60 mins in absence of CYP cofactor NADP by HPLC-UV chromatography; assay type: ADME, subcellular; settings: s9, 1 h
Aldehyde oxidase [22] = molecular target: T2, Aldehyde oxidase; assay: Drug metabolism in human liver S9 fractions assessed as AO-mediated mono-oxidised metabolite formation at 10 uM incubated for 60 mins in absence of CYP cofactor NADP and in presence of 50 uM AO inhibitor menadione by HPLC-UV chromatography; assay type: ADME, subcellular; settings: s9, 1 h
Aldehyde oxidase [23] = molecular target: T2, Aldehyde oxidase; assay: Drug metabolism in human liver S9 fractions assessed as AO-mediated oxidation on pyrrolopyrimidine-hinge binding group and the central pyridine substituent at 10 uM incubated for 60 mins in absence of CYP cofactor NADP by HPLC-UV chromatography; assay type: ADME, subcellular; settings: s9, 1 h
Aldehyde oxidase [24] = molecular target: T2, Aldehyde oxidase; assay: Drug metabolism in human liver S9 fractions assessed as AO-mediated amide hydrolysis at 10 uM incubated for 60 mins in absence of CYP cofactor NADP by HPLC-UV chromatography; assay type: ADME, subcellular; settings: s9, 1 h
Aldehyde oxidase [25] = molecular target: T2, Aldehyde oxidase; assay: Drug metabolism in human liver S9 fractions assessed as AO-mediated oxidation on amino-pyrrolopyrimidine hinge binding group and central pyridine substituent at 10 uM incubated for 60 mins in absence of CYP cofactor NADP by HPLC-UV chromatography; assay type: ADME, subcellular; settings: s9, 1 h

BDNF/NT-3 growth factors receptor, sequence (Q16620 whole entry): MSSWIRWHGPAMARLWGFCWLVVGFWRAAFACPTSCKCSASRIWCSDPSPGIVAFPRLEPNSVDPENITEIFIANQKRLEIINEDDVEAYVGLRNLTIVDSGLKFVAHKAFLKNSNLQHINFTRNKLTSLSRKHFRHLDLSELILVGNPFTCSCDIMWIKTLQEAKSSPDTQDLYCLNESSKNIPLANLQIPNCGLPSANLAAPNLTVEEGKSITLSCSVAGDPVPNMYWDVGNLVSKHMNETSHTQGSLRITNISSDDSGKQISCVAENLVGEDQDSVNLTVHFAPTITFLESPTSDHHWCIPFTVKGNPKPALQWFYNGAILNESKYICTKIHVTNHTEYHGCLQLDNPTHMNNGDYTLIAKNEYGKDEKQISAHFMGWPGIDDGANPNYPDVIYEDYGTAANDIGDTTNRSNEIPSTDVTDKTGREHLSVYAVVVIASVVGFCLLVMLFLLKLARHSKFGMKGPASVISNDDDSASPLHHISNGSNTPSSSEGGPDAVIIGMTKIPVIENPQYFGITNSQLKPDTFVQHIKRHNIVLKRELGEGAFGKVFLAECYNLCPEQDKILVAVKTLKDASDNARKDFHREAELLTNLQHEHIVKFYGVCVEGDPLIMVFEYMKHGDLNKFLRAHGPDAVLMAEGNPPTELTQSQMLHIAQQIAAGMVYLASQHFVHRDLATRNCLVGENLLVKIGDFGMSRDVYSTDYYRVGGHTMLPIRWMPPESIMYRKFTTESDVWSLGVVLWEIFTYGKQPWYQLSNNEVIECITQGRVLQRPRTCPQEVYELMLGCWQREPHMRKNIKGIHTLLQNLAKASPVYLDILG
High affinity nerve growth factor receptor, sequence (P04629 whole entry): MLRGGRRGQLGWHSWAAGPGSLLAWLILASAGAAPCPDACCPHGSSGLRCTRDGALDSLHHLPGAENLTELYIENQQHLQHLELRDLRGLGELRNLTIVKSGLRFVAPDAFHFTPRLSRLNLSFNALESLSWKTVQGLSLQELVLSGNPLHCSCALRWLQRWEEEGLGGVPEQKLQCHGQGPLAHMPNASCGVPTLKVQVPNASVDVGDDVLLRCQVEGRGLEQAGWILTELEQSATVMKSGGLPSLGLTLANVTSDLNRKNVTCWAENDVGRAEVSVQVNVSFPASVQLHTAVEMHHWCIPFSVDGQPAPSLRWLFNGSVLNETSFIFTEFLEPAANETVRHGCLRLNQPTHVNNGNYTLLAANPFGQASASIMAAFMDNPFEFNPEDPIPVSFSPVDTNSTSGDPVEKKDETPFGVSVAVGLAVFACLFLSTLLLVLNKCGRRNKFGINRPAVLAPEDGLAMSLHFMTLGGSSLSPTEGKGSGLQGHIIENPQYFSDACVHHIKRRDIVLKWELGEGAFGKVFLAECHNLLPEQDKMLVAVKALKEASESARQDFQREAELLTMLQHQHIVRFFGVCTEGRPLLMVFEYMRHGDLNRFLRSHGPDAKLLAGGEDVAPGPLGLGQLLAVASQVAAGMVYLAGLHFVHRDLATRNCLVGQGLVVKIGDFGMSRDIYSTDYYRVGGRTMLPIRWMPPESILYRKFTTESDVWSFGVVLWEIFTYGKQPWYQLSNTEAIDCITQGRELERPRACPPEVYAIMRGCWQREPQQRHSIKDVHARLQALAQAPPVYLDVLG
T1 sequence (Q12809 whole entry): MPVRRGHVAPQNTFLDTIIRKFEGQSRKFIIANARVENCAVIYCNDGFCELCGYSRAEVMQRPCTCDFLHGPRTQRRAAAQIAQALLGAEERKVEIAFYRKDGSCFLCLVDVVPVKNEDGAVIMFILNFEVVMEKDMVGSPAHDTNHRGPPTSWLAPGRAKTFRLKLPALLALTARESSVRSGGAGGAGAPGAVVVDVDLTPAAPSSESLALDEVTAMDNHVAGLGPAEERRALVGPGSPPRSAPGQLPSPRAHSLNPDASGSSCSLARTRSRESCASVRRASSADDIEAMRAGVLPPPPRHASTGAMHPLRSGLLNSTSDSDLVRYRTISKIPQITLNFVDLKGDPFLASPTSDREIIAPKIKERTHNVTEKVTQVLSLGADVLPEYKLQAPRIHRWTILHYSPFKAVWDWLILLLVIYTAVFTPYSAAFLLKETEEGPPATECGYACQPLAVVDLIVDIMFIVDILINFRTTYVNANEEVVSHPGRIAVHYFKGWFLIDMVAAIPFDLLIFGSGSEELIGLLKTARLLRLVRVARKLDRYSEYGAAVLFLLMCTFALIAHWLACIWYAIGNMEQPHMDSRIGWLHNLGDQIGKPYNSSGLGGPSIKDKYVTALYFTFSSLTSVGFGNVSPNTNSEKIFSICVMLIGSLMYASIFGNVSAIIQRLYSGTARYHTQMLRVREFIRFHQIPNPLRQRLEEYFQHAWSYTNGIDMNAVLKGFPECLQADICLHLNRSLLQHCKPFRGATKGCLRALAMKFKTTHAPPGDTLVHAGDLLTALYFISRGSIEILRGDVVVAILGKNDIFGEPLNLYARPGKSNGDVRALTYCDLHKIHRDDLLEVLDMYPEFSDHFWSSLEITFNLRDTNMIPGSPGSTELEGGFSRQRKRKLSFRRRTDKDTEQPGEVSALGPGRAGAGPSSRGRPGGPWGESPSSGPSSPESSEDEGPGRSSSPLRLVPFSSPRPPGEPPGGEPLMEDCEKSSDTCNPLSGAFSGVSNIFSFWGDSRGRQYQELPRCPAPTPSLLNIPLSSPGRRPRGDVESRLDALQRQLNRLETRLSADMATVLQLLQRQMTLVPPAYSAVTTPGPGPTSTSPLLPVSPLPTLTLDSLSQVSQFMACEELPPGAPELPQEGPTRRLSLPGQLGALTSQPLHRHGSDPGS

Row | SMILES | solubility (physchem [1]) [µM] | IC50 [2] [µM] | microsomal CLint at 1 h, 1 µM (in vitro) [µL/min/mg] | logD (physchem [3]) | Papp A→B (human BCRP [4]) [nm/s] | CLH(app) [5] [µL/min] | IC50 [8] [µM] | efflux ratio (MDR1 (P-gp)) | Ki [6] [µM] | also measured
1 | CC(C)n1cc(C(=O)c2cc(NC(=O)Cc3ccc(Cl)cc3)ccn2)c2cncc(F)c21 | – | – | – | – | – | – | – | – | – | Drug metabolism (Aldehyde oxidase [18]): Metabolite_Notdetected
2 | CC(C)n1cc(C(=O)c2cncc(NC(=O)Cn3ccc(C4CC4)n3)c2)c2cncc(F)c21 | – | 0.007 | 37 | 3.5 | 154 | – | 0.033 | 3.8 | 11.3 | –
3 | CC(C)n1cc(C(=O)c2cncc(NC(=O)Cn3ccc(C4CC4)n3)c2)c2cnccc21 | – | 0.005 | 35 | 2.7 | 198 | 23 | 0.017 | 12.5 | 1.4 | –
4 | C[C@H](CO)n1cc(C(=O)c2ccnc(NC(=O)Cc3ccc(C#N)cc3)c2)c2cncnc21 | – | – | – | – | – | – | – | – | – | Drug metabolism (Aldehyde oxidase [20]): Metabolite_Detected; Drug metabolism (Aldehyde oxidase [21]): Metabolite_Detected; Drug metabolism (Aldehyde oxidase [22]): Metabolite_Notdetected
5 | CC(C)n1cc(C(=O)c2cncc(NC(=O)Cn3ccc(C4CC4)n3)c2)c2cncnc21 | – | 0.004 | 25 | 2.5 | 184 | 12 | 0.018 | 5.8 | 11.9 | efflux ratio (human BCRP [19]): 38
6 | CC(C)n1cc(C(=O)c2cncc(NC(=O)Cc3ccc(C#N)cc3)c2)c2c(N)ncnc21 | 4.4 (≈ 1.93 µg/mL) | 0.008 | 22 | 2.5 | 121 | 7 | 0.073 | 27 | 9.7 | Kp uu at 3 h (in vivo): 0.013; Drug metabolism (Aldehyde oxidase [23]): Metabolite_Detected; Drug metabolism (Aldehyde oxidase [24]): Metabolite_Detected; Drug metabolism (Aldehyde oxidase [25]): Metabolite_Detected
7 | CC(C)(CO)n1cc(C(=O)c2cncc(NC(=O)Cc3ccc(Cl)cc3)c2)c2cnc(N)nc21 | 29 (≈ 13.9 µg/mL) | – | < 8 | 3.7 | 64 | 11.2 | – | – | > 4.3 | –

More lines, in order of falling IC50 [8], values ahead:

Row | solubility (physchem [1]) [µM] | IC50 [2] [µM] | microsomal CLint at 1 h, 1 µM (in vitro) [µL/min/mg] | logD (physchem [3]) | Papp A→B (human BCRP [4]) [nm/s] | CLH(app) [5] [µL/min] | IC50 [8] [µM] | efflux ratio (MDR1 (P-gp)) | SMILES | Ki [6] [µM] | also measured
8 | 7.5 (≈ 3.42 µg/mL) | 0.007 | < 8 | 3 | 113 | 12 | 0.013 | – | CC(C)n1cc(C(=O)c2cncc(NC(=O)Cn3ccc(C(F)(F)F)n3)c2)c2cnccc21 | 1.4 | Kp uu at 3 h (in vivo): 0.0083; Drug metabolism (Aldehyde oxidase [9]): Metabolite_Detected; clearance [10]: 3 L/h/kg; half-life [11]: 2.3 h; Vd [12]: 1.5 L/kg; Activity [13]: Non-Toxic; bioavailability [14]: 16%; CL [15]: 70%; Drug metabolism (Aldehyde oxidase [16]): Metabolite_Notdetected; IC50 [17]: 1.6 µM
9 | 17.5 (≈ 7.59 µg/mL) | 0.004 | 22 | 3.7 | 99 | 37 | 0.012 | – | CC(C)n1cc(C(=O)c2cncc(NC(=O)Cc3ccc(Cl)cc3)c2)c2cncnc21 | 5.2 | –
10 | 30 (≈ 13.3 µg/mL) | 0.005 | 8 | 2.5 | 158 | 24 | 0.008 | – | CC(C)n1cc(C(=O)c2cncc(NC(=O)Cn3ccc(C4CC4)n3)c2)c2cnc(N)nc21 | 38.9 | Drug metabolism (Aldehyde oxidase [7]): Metabolite_Notdetected
11 | 12 (≈ 5.39 µg/mL) | 0.002 | < 8 | 4.2 | 52 | 14 | 0.006 | – | CC(C)n1cc(C(=O)c2cncc(NC(=O)Cc3ccc(Cl)cc3)c2)c2cnc(N)nc21 | 16.9 | Drug metabolism (Aldehyde oxidase [7]): Metabolite_Notdetected
12 | 13.6 (≈ 6.13 µg/mL) | – | 23 | 4.3 | 241 | – | 0.003 | 10.9 | CC(C)n1cc(C(=O)c2ccnc(NC(=O)Cc3ccc(F)cc3F)c2)c2c(N)ncnc21 | 8.3 | efflux ratio (human BCRP [19]): 10.9

— ChEMBL document CHEMBL4680090 (J Med Chem, 2016)
